Data published in patent US20180049996A1, “THERAPEUTIC AGENT FOR CHRONIC RESPIRATORY DISEASE AND COMPOSITION FOR INHIBITING CARDIAC FIBROSIS” (NIPPON HYPOX LABORATORIES INCORPORATED, priority 2015, published 2018).

Tests used:
[1] = system: IL-5; assay: IL-5 level in BAL fluid (ELISA), ovalbumin asthma model; type: in vivo, BALB/c female mice; conditions: HTHQ 20 and 40 mg/kg/day oral; compared to OVA group
Experimental: (§1) 6 week old BALB/c female mice were purchased and the mice were divided into 5 groups with 5 animals per group shown in Table 3 below after habituation breeding of about 2 weeks.
(§2) The test was conducted on the schedule of sensitization, causing diseases and administration of test materials shown in FIG. 12. “IP” in FIG. 12 refers to ovalbumin sensitization treatment by the intraperitoneal administration of ovalbumin/aluminum hydroxide, and “IH” refers to inhalation exposure treatment of ovalbumin, and “PO” refers to the administration of the test materials. […]
(§3) All mice were euthanized by intraperitoneal injection of pentobarbital (Hanrimu pharmaceutical, South Korea) at 50 mg/kg and the bronchi were excised on day 25 of the test. […] After preparing slide samples from 100 μL of BAL cell fluid using Cytospin (4° C., 1000 rpm×5 min), the cell numbers of inflammatory cells (eosinophils, macrophages, lymphocytes and neutrophils) present in the BAL fluid were counted using a Diff-Quik stain kit.
(§4) The supernatant of the BAL fluid stored was taken out of the super-cryostat and IL-4, IL-5 and IL-13 levels were measured as the pro-inflammatory cytokine contents in the supernatant of the BAL fluid. A quantitative ELISA kit (a product from R&D systems) and a microplate reader (a product from Bio-Rad Laboratories, Inc.) were used for the measurement and the measurement wavelength was 450 nm.

[2] = system: IL-13; assay: IL-13 level in BAL fluid (ELISA), ovalbumin asthma model; type: in vivo, BALB/c female mice; conditions: HTHQ 20 and 40 mg/kg/day oral; compared to OVA group
Experimental: as §1, §2, §3, §4

[3] = system: sputum excretion; assay: Sputum excretion action (phenol red excretion from trachea sections, method of Engler et al.); type: in vivo, male ICR mice; conditions: relative to negative control
Experimental: The hydroquinone derivative of the present invention was orally administered to 8 week old male ICR mice in a single dose, and the sputum excretion action was evaluated according to the method of Engler et al. (Engler H, Szelenyi I, J.Pharmacol. Moth. 11, 151-157, 1984).
Specifically, the test was conducted as follows. The test material was orally administered to the mice in the control group and the test groups, i.e., an aqueous solution of 2% gum arabic was administered to the mice in the negative control group, and 2,3,5-trimethylhydroquinone-1-hexyl ether (HTHQ), the test substance, was orally administered to the mice in the HTHQ-administered groups at 100 mg/kg body weight, 200 mg/kg body weight and 400 mg/kg body weight, respectively. Ambroxol (a product from Sigma-Aldrich) was orally administered to the mice in the ambroxol administered group at 250 mg/kg body weight. Here, ambroxol is a substance having expectoration action and has been selected as a positive control substance. 30 minutes after the oral administration of the test material, saline in which phenol red (a product from Sigma-Aldrich) was dissolved at a concentration of 0.05 g/mL was intraperitoneally administered at 15 mL/kg. Then, 30 minutes after the administration of phenol red, the mice were euthanized by inhalation of carbon dioxide, and the tracheae were extirpated. Given sites of the extirpated tracheae were cut into sections of fixed size to obtain trachea sections. The obtained trachea sections were added to centrifugation tubes, and 1 mL of saline was added there, and the mixture was sonicated using a ultrasonic washing machine for 15 minutes. After the centrifugation of 5 minutes at 10000 rpm, 0.5 mL of a upper layer solution was dispensed to the centrifugation tubes and 0.05 mL of 1 N sodium hydroxide was added to the tubes. After stirring with a vortex mixer, 0.2 mL of a sample was dispensed to a 96 well plate, and absorbance was measured at 546 nm using a micro plate reader (a product from BioTek Instruments, Inc). The amounts of phenol red excreted from the trachea sections of the mice in the control group and test groups were calculated by extrapolating the measured absorbance to the standard curve based on the absorbance of phenol red reference standard ([…], 2.3 and 1.2 ng/mL). The amounts of phenol red excreted from the trachea sections were substituted in the following formula to calculate the sputum excretion ability of the test material. The formula to calculate the sputum excretion ability is as follows: “sputum excretion ability(%)={(A/B)−1}×100” wherein A is the amounts of phenol red of the test material administered groups (an average) and B is the amount of phenol red of the negative control group (an average).

In the case of CCCCCCOc1cc(C)c(O)c(C)c1C [HTHQ, 2,3,5-trimethylhydroquinone-1-hexyl ether], the “IL-5 content in BAL fluid” value [1] is reported as “significantly reduced”, the “IL-13 content in BAL fluid” value [2] is reported as “significantly reduced” and the sputum excretion ability ([3]; HTHQ 100 mg/kg oral single dose) is reported as 24.6%. For the same molecule, the sputum excretion ability ([3]; HTHQ 200 mg/kg oral single dose, significant increase) was 30.0% and the sputum excretion ability ([3]; HTHQ 400 mg/kg oral single dose, significant increase) was 36.2%.
